Data published in patent publication US11118204B2, “Switchable ionic liquids for biomass pretreatment and enzymatic hydrolysis” (National Technology & Engineering Solutions of Sandia, LLC, priority 2014, dated 2021).
Values joined by “and” are separate entries in the source; they are usually repeats but may differ in a detail not shown here. Equal values may be shown once.

Columns and labels:
Ctec2 = Ctec2 stability in ionic liquids (residual activity, T50^30); assay type: biochemical; details: for T50^30 (temperature at which enzyme activity is reduced by 50% following 30-minute pre-incubation): Ctec2 pre-incubated 38-80° C. in IL at 5-20%, substrates CMC, PNP-cellobiose, PNP-glucopyranoside, FIG. 1
Experimental: Enzyme stability was monitored by residual activity measurements. Ctec2 was diluted 200-fold into nine ionic liquid or buffer solutions at concentrations from 1-20 wt %. Each enzyme solution was then divided into 18 wells in a thin-walled PCR plate and incubated in thermal […] (Applied Biosystems, Veriti) at temperatures from 38-80° C. for 30 minutes. […] CMC reaction end-points were analyzed by DNS assay to detect reducing sugars. The end-points of the paranitrophenol reactions were measured by absorbance at 405 nm. […] Error was estimated by replication of both the incubation and activity measurement steps. Some solution conditions produced clearly bi-modal inactivation curves; in these cases the larger of the two transitions was reported. […] To capture the stability differences for several different enzyme classes in the multicomponent commercial enzyme mixture, the T50^30 was measured on three different representative substrates: carboxymethylcellulose (CMC), 4-Nitrophenyl β-D-glucopyranoside (PNP-glucopyranoside) and 4-Nitrophenyl β-D-cellobiose (PNP-cellobiose). […] In FIG. 1, data for acetate-based ionic liquids are shown in the left-hand panels: [Em][Ac] (open circle, solid line); [Ch][Ac] (closed circle, solid line); [Na][Ac], pH 5.2 at 25° C. (closed circle, dashed line). Data for glutamic acid-based ionic liquids are shown in the center panels: […] [Ch]2[Glu] (closed triangle, solid line); […] (open circle, dashed line). Data for succinic acid-based ionic liquids are shown in the right-hand panels: […] [Na][Sc], pH 5.2 at 25° C. (closed square, dashed line); […]

[1] = Switchgrass pretreatment in ionic liquid and enzymatic hydrolysis (sugar conversion); details: for pretreatment efficiency on dilution of the ionic liquid: 120° C., 3 hrs, FIG. 2B; for biomass pretreatment effectiveness (sugar conversion): pretreatment in neat ionic liquid at 90 or 120° C., hydrolysis in 50 mM sodium succinate pH 5.2, FIG. 2A
Experimental: Putnam Switchgrass (20 mesh—2 mm particle size) was used as the biomass for all experiments. Samples used to determine the pretreatment and dilution efficiency were washed free of ionic liquid with de-ionized water, and re-suspended in 50 mM sodium succinate buffer at pH 5.2. All enzyme hydrolysis reactions were performed with shaking at 50° C. and 20 mg/g 9:1 Ctec2:Htec, unless otherwise specified. Small-scale, one-pot reactions were performed in 2 ml screw-cap vials in heating blocks without mixing with 100 mg biomass at the specified ionic liquid concentration and biomass loading. Reactions were then acidified with 1 eq. of the free acid in the same vial and transferred to shaker incubators for the enzymatic hydrolysis. Larger scale one-pot reactions were performed in glass pressure tubes (Ace Glass, USA) with 2 g or 4 g biomass (Table 1). Liberated glucose and xylose were quantified with an Agilent HPLC using a Bio-Rad Aminex […] column with a 4 mM sulfuric acid mobile phase.
Data for pretreatment at 90° C. and 120° C. is shown using white bars and black bars, respectively. […] (white bars), and dilution of the ionic liquid to 25% with water.
For the data in FIG. 2C, samples were pretreated at 90° C. or 120° C., with various % IL in the liquid fraction and different wt % biomass loadings. All samples were then hydrolyzed at 25% IL concentration with 9:1 Ctec2:Htec at 20 mg/g biomass. White bars, 90° C., 16 hrs; gray bars, 120° C., 3 hrs; black bars, 120° C., 16 hrs.
In FIG. 3A and FIG. 3B, the circles represent data obtained using 10 wt % ionic liquid and the squares represent data obtained using 25 wt % ionic liquid.

[2] = ionic liquid solution
[3] = corn stover, 25 wt % ionic liquid
[4] = [Em][Ac] (20%) acidified with acetic acid to pH ~5

For `CC(=O)[O-].CCn1cc[n+](C)c1` [[Em][Ac], 1-ethyl-3-methylimidazolium acetate], the “stability of the commercial enzyme mixture on CMC” value (Ctec2; [4]) was “slightly” and the “stability of the commercial enzyme mixture on the para-nitrophenol substrates” value (Ctec2; [4]) was “decreased significantly”.
In the case of `C[N+](C)(C)CCO.C[N+](C)(C)CCO.N[C@@H](CCC(=O)[O-])C(=O)[O-]` [[Ch]2[Glu], (choline)2 glutamate], the “T50^30 (temperature at which enzyme activity is reduced by 50% following 30-minute pre-incubation)” value (Ctec2) is reported as “lowest”, the CTec2 activity (Ctec2; at the lowest ionic liquid concentrations) is reported as “very low” and the “performance (glucose yield) relative to the neat ionic liquid” value ([1]; 25% solution, pretreatment 120° C., 16 hours, one-pot) is reported as roughly 90%. For the same compound, the “pretreatment efficiency on dilution of the ionic liquid” value [1] was “consistently high pretreatment efficiency”, the “biomass pretreatment effectiveness (sugar conversion)” value (“biomass pretreatment effectiveness” for short) [1] was “marked improvement” and the “solution pH” value [2] was 10-11. For the same compound, the glucose yield [3] was roughly 95%.
For “Choline lysinate [[Ch][Lys], reference compound]”, the “T50^30 (temperature at which enzyme activity is reduced by 50% following 30-minute pre-incubation)” value (Ctec2) was “similarly low” and the “solution pH” value [2] was ~14 and ~12.
For Choline succinate [[Ch][Sc]], the “biomass pretreatment effectiveness” value [1] was “poorly”.
With `C[N+](C)(C)CCO.C[N+](C)(C)CCO.O=C([O-])C(=O)[O-]` [[Ch]2[oxalic acid], reference compound] the Glucose conversion ([1]; ionic liquid used neat) was 48% and the “glucose conversion above hot water pretreatment” value ([1]; ionic liquid used neat) was roughly 15%.
In the case of `C[N+](C)(C)CCO.C[N+](C)(C)CCO.O=C([O-])CCC(=O)[O-]` [[Ch]2[Sc], (choline)2 succinate], the “pretreatment efficiency on dilution of the ionic liquid” value [1] is reported as “monotonic decrease in efficiency”, the “sugar release relative to [Ch][Glu]” value ([1]; pretreatment at 120° C.) is reported as “twice as much sugar” and the “biomass pretreatment effectiveness” value [1] is reported as “marked improvement”. The “solution pH” value [2] was roughly 7.
For choline glutamate [[Ch][Glu]], the Glucose conversion ([1]; 10 wt % IL, 10% switchgrass, pretreatment at 120° C. with [Ch]2[Glu], one-pot hydrolysis with CTec2) was 91%, the Glucose conversion ([1]; 25 wt % IL, 10% switchgrass, pretreatment at 120° C. with [Ch]2[Glu], one-pot hydrolysis with CTec2) was 82% and the “biomass pretreatment effectiveness” value [1] was “poorly”.
